Test systems include A498 renal; UACC-62 melanoma; PC-3 prostate; 786-0 renal; OVCAR-3 ovarian; UO-31 renal; SF-539 CNS; SF-295 CNS; SNB-19 CNS; HCC-2998 colon.
Common to all, as to assay: DTP human tumour cell line panel, 48 h

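Assay format: 96-well plates, 48-hour exposure. GI50 marks 50% less growth. TGI denotes the concentration required for complete inhibition of growth.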 Bounds are passed on as bounds.

In the case of `Cc1ccc(-c2nc(-c3nccc4ccccc34)oc2-c2ccccc2)cc1`, the TGI in the assay on A498 renal, in the assay on UACC-62 melanoma, with PC-3 prostate, in the assay with 786-0 renal, in the assay with OVCAR-3 ovarian and with UO-31 renal was greater than 100 µM in each case. The TGI with SF-539 CNS, in the assay on SF-295 CNS and with SNB-19 CNS was greater than 100 µM in each case.
For `NCCCNc1nc2ccccc2c2c(=O)c3cccc(Cl)c3sc12`, the GI50 (commonly the concentration giving 50% growth inhibition) is 1.02 µM in the assay on A498 renal; 1.67 µM with UACC-62 melanoma; 1.52 µM with PC-3 prostate; 1.61 µM in the assay on 786-0 renal; 1.03 µM in the assay on UO-31 renal; 1.48 µM with HCC-2998 colon. The results for the GI50 with SF-539 CNS and in the assay on SF-295 CNS were 1.63 µM and 1.71 µM, respectively. Besides, the TGI (commonly the concentration giving total growth inhibition) in the assay on A498 renal worked out at 2.74 µM; with UACC-62 melanoma, 3.17 µM; in the assay on PC-3 prostate, 2.95 µM; in the assay with 786-0 renal, 3.05 µM; in the assay on UO-31 renal it was 2.24 µM; with HCC-2998 colon, 2.98 µM. Also, the total growth inhibition concentration (TGI) came to 3.02 µM in the assay on SF-539 CNS and 3.14 µM with SF-295 CNS.
With `COc1ccc(C2C(C#N)=C(N)Oc3c2sc2c(Br)cccc32)cc1` (stereo not drawn), the GI50 with A498 renal was 1.37 µM; in the assay on UACC-62 melanoma, 0.996 µM; in the assay on PC-3 prostate it was 2.86 µM; in the assay on 786-0 renal, 3.25 µM; in the assay with OVCAR-3 ovarian it was 0.979 µM; in the assay on UO-31 renal, 3.21 µM. Further, the values for the GI50 in the assay with HCC-2998 colon, in the assay on SF-295 CNS and in the assay with SNB-19 CNS were 1.64 µM, 0.907 µM and 4.04 µM, respectively. In addition, the TGI in the assay on A498 renal was found to be 13.9 µM; in the assay on UACC-62 melanoma, 15.4 µM; in the assay with PC-3 prostate, 17.3 µM; in the assay with 786-0 renal it was 13 µM; with OVCAR-3 ovarian, 3.75 µM; in the assay on UO-31 renal, 17.7 µM. The results for the total growth inhibition concentration (TGI) in the assay on HCC-2998 colon, in the assay on SF-295 CNS and in the assay with SNB-19 CNS were 6.25 µM, 6.54 µM and 21.6 µM, respectively.
Turning to `CCCc1nc(Cl)c(Cl)c(Cl)n1`, the TGI in the assay with A498 renal was greater than 100 µM; in the assay with UACC-62 melanoma, greater than 100 µM; in the assay with PC-3 prostate, greater than 100 µM; in the assay with 786-0 renal, greater than 31.6 µM; in the assay on OVCAR-3 ovarian it was 18.7 µM; with UO-31 renal, 5.61 µM. Moreover, the TGI was 68.6 µM in the assay on SF-539 CNS, greater than 100 µM in the assay with SF-295 CNS and greater than 96.4 µM in the assay on SNB-19 CNS.
Regarding `CCCCCCCCCCCCN=C(N)c1ccc(N2CCN(c3ccc(C(N)=NCCCCCCCCCCCC)cc3)CC2)cc1`, the GI50 is 10.5 µM with UACC-62 melanoma; 9.02 µM in the assay with PC-3 prostate; 6.23 µM in the assay on 786-0 renal; 8.66 µM in the assay on OVCAR-3 ovarian; 22.6 µM in the assay with UO-31 renal; 8.67 µM with HCC-2998 colon. The GI50 in the assay with SF-295 CNS is 7.66 µM; in the assay with SNB-19 CNS it was 11 µM. Also, the concentration for total growth inhibition (TGI) is 21.5 µM in the assay with UACC-62 melanoma; 20.2 µM with PC-3 prostate; 15.6 µM in the assay on 786-0 renal; 20.7 µM in the assay on OVCAR-3 ovarian; greater than 50 µM with UO-31 renal; 17 µM in the assay on HCC-2998 colon. Moreover, the results for the TGI in the assay with SF-295 CNS and in the assay on SNB-19 CNS were 18.1 µM and 20.5 µM, respectively.
Turning to `Cc1c2ccncc2c(C)c2c1sc1ccccc12`, the TGI is 23.1 µM in the assay on A498 renal; 18.6 µM in the assay with UACC-62 melanoma; 26.4 µM with PC-3 prostate; 17.5 µM in the assay with 786-0 renal; 29.6 µM in the assay with OVCAR-3 ovarian; 25.9 µM with HCC-2998 colon. Also, the TGI in the assay on SF-539 CNS is 21.1 µM; with SF-295 CNS it was 26.4 µM; with SNB-19 CNS it was 26.7 µM.
Turning to `Oc1ccc(C(O)(c2ccccc2)c2ccccc2)c2ccccc12`, the total growth inhibition concentration (TGI) in the assay on UACC-62 melanoma was found to be 3.61 µM; in the assay with PC-3 prostate, 14.2 µM; with 786-0 renal, 6.61 µM; in the assay with OVCAR-3 ovarian it was 3.93 µM; in the assay with UO-31 renal, 11.6 µM; in the assay on SF-539 CNS, 4.62 µM. Moreover, the TGI in the assay with SF-295 CNS is 8.19 µM; in the assay with SNB-19 CNS, 19.8 µM.
As to `O=C(Nc1cc(Cl)ccc1O)c1ccccc1Nc1ccnc(C(F)(F)F)c1`, the GI50 in the assay with A498 renal is 2.25 µM; in the assay with UACC-62 melanoma, 2.51 µM; in the assay on PC-3 prostate it was 2.84 µM; with 786-0 renal it was 3.28 µM; in the assay with OVCAR-3 ovarian it was 1.7 µM; in the assay with HCC-2998 colon, 3 µM. Moreover, the GI50 in the assay with SF-539 CNS is 2.7 µM; in the assay with SF-295 CNS, 2.5 µM; in the assay with SNB-19 CNS it was 2.88 µM. Moreover, the TGI is 6.4 µM in the assay on A498 renal; 10 µM in the assay with UACC-62 melanoma; greater than 100 µM in the assay on PC-3 prostate; 8.8 µM in the assay with 786-0 renal; 4.8 µM with OVCAR-3 ovarian; 7.41 µM with HCC-2998 colon. Also, the total growth inhibition concentration (TGI) with SF-539 CNS was 9.16 µM; in the assay with SF-295 CNS, 6.78 µM; in the assay with SNB-19 CNS it was 10.3 µM.
On to `COCCc1n(Cc2ccc3ccccc3c2)c2ccccc2[n+]1Cc1ccc2ccccc2c1`, for which the GI50 in the assay with A498 renal was 1.54 µM; in the assay with UACC-62 melanoma, 0.384 µM; in the assay with PC-3 prostate, 0.412 µM; in the assay on 786-0 renal, 1.28 µM; in the assay with OVCAR-3 ovarian it was 0.451 µM; in the assay with UO-31 renal it was 1.48 µM. The total growth inhibition concentration (TGI) with A498 renal stood at 2.98 µM; in the assay on UACC-62 melanoma, 1.52 µM; with PC-3 prostate, 1.62 µM; in the assay with 786-0 renal, 2.76 µM; in the assay on OVCAR-3 ovarian, 1.72 µM; with UO-31 renal, 2.88 µM.
On to `CN(C)Cc1ccc(NC(=O)c2cncc(C#Cc3cnc(N)c4ncccc34)c2)cc1F`, for which the GI50 is 6 µM in the assay on A498 renal; 1.83 µM in the assay on UACC-62 melanoma; 1.74 µM with PC-3 prostate; 1.86 µM in the assay on 786-0 renal; 2.07 µM in the assay with OVCAR-3 ovarian; 2.38 µM in the assay with UO-31 renal. In addition, the figures for the GI50 in the assay with HCC-2998 colon, in the assay with SF-539 CNS and in the assay on SF-295 CNS were 9.83 µM, 1.53 µM and 10.6 µM, respectively. In addition, the TGI worked out at 29 µM in the assay with A498 renal; 3.53 µM in the assay with UACC-62 melanoma; 3.34 µM with PC-3 prostate; 3.6 µM with 786-0 renal; 3.68 µM in the assay on OVCAR-3 ovarian; 4.08 µM in the assay on UO-31 renal. Also, the TGI in the assay with HCC-2998 colon is 29.3 µM; with SF-539 CNS it was 3.07 µM; with SF-295 CNS, 26.5 µM.

For the origin of these results see PubChem BioAssay (NCI).
